Where two headings read alike, the source gives them in different places.
Assays:
Test in all cases: Herbicidal activity for paddy test
Assay type in all cases: in vivo
SAGPY = conditions: for pest or weed control at 2 g/ha: 0.002 kg/ha; for pest or weed control at 8 g/ha: 0.008 kg/ha; for pest or weed control at 31 g/ha: 0.031 kg/ha; for pest or weed control at 125 g/ha: 0.125 kg/ha; for pest or weed control at 500 g/ha: 0.500 kg/ha
Description: (§1) The sterilized sandy loam soil is filled in test pot having a surface area of 348 cm^2 for upland test conditions or 115 cm^2 for paddy test species were planted in furrows.
(§2) The herbicidal activity data were taken visually by percent control, wherein 0 signifies no herbicidal effect and 100 signifies complete kill.

ORYSA = conditions: for plant injury at 2 g/ha: 0.002 kg/ha; for plant injury at 8 g/ha: 0.008 kg/ha; for plant injury at 31 g/ha: 0.031 kg/ha; for plant injury at 125 g/ha: 0.125 kg/ha; for plant injury at 500 g/ha: 0.500 kg/ha
Description: as §1, §2

ECHOR = conditions: for pest or weed control at 2 g/ha: 0.002 kg/ha; for pest or weed control at 8 g/ha: 0.008 kg/ha; for pest or weed control at 31 g/ha: 0.031 kg/ha; for pest or weed control at 125 g/ha: 0.125 kg/ha; for pest or weed control at 500 g/ha: 0.500 kg/ha
Description: as §1, §2

SCPJU = conditions: for pest or weed control at 2 g/ha: 0.002 kg/ha; for pest or weed control at 8 g/ha: 0.008 kg/ha; for pest or weed control at 31 g/ha: 0.031 kg/ha; for pest or weed control at 125 g/ha: 0.125 kg/ha; for pest or weed control at 500 g/ha: 0.500 kg/ha
Description: as §1, §2

MOOVA = conditions: for pest or weed control at 2 g/ha: 0.002 kg/ha; for pest or weed control at 8 g/ha: 0.008 kg/ha; for pest or weed control at 31 g/ha: 0.031 kg/ha; for pest or weed control at 125 g/ha: 0.125 kg/ha; for pest or weed control at 500 g/ha: 0.500 kg/ha
Description: as §1, §2

[1] = 3 Leaf, read-out: Herbicidal activity, ORYSA (3 Leaf)
[2] = seed, read-out: Herbicidal activity, ORYSA (seed)

## C=CCON=C(CCC)C1=C(O)CC(c2c(C)c3c(c(C)c2Cl)CC(C)(C)C3)CC1=O (stereo not drawn) [Compound 27]
SAGPY
  pest or weed control at 2 g/ha: 0%
  pest or weed control at 8 g/ha: 0%
  pest or weed control at 31 g/ha: 0%
  pest or weed control at 125 g/ha: 0%
  pest or weed control at 500 g/ha: 0%
ORYSA; [1]
  plant injury at 2 g/ha: 0%
  plant injury at 8 g/ha: 0%
  plant injury at 31 g/ha: 0%
  plant injury at 125 g/ha: 0%
  plant injury at 500 g/ha: 0%
ORYSA; [2]
  plant injury at 2 g/ha: 0%
  plant injury at 8 g/ha: 0%
  plant injury at 31 g/ha: 0%
  plant injury at 125 g/ha: 100%
  plant injury at 500 g/ha: 100%
ECHOR
  pest or weed control at 2 g/ha: 0%
  pest or weed control at 8 g/ha: 0%
  pest or weed control at 31 g/ha: 50%
  pest or weed control at 125 g/ha: 100%
  pest or weed control at 500 g/ha: 100%
SCPJU
  pest or weed control at 2 g/ha: 0%
  pest or weed control at 8 g/ha: 0%
  pest or weed control at 31 g/ha: 0%
  pest or weed control at 125 g/ha: 0%
  pest or weed control at 500 g/ha: 0%
MOOVA
  pest or weed control at 2 g/ha: 0%
  pest or weed control at 8 g/ha: 0%
  pest or weed control at 31 g/ha: 0%
  pest or weed control at 125 g/ha: 0%
  pest or weed control at 500 g/ha: 0%

## CCC(=NOCC=CCl)C1=C(O)CC(c2c(C)c(C)c3c(c2C)CC(C)(CC)C3)CC1=O (stereo not drawn) [Compound 14]
SAGPY
  pest or weed control at 2 g/ha: 0%
  pest or weed control at 8 g/ha: 0%
  pest or weed control at 31 g/ha: 0%
  pest or weed control at 125 g/ha: 0%
  pest or weed control at 500 g/ha: 30%
ORYSA; [1]
  plant injury at 2 g/ha: 0%
  plant injury at 8 g/ha: 0%
  plant injury at 31 g/ha: 0%
  plant injury at 125 g/ha: 0%
  plant injury at 500 g/ha: 40%
ORYSA; [2]
  plant injury at 2 g/ha: 0%
  plant injury at 8 g/ha: 0%
  plant injury at 31 g/ha: 0%
  plant injury at 125 g/ha: 40%
  plant injury at 500 g/ha: 100%
ECHOR
  pest or weed control at 2 g/ha: 30%
  pest or weed control at 8 g/ha: 70%
  pest or weed control at 31 g/ha: 100%
  pest or weed control at 125 g/ha: 100%
  pest or weed control at 500 g/ha: 100%
SCPJU
  pest or weed control at 2 g/ha: 0%
  pest or weed control at 8 g/ha: 0%
  pest or weed control at 31 g/ha: 0%
  pest or weed control at 125 g/ha: 30%
  pest or weed control at 500 g/ha: 90%
MOOVA
  pest or weed control at 2 g/ha: 0%
  pest or weed control at 8 g/ha: 0%
  pest or weed control at 31 g/ha: 0%
  pest or weed control at 125 g/ha: 30%
  pest or weed control at 500 g/ha: 100%

## C=C(Cl)CON=C(CC)C1=C(O)CC(c2c(C)c(C)c3c(c2C)CC(C)(CC)C3)CC1=O (stereo not drawn) [Compound 15]
SAGPY
  pest or weed control at 2 g/ha: 0%
  pest or weed control at 8 g/ha: 0%
  pest or weed control at 31 g/ha: 0%
  pest or weed control at 125 g/ha: 0%
  pest or weed control at 500 g/ha: 0%
ORYSA; [1]
  plant injury at 2 g/ha: 0%
  plant injury at 8 g/ha: 0%
  plant injury at 31 g/ha: 0%
  plant injury at 125 g/ha: 0%
  plant injury at 500 g/ha: 30%
ORYSA; [2]
  plant injury at 2 g/ha: 0%
  plant injury at 8 g/ha: 0%
  plant injury at 31 g/ha: 0%
  plant injury at 125 g/ha: 40%
  plant injury at 500 g/ha: 100%
ECHOR
  pest or weed control at 2 g/ha: 0%
  pest or weed control at 8 g/ha: 30%
  pest or weed control at 31 g/ha: 30%
  pest or weed control at 125 g/ha: 100%
  pest or weed control at 500 g/ha: 100%
SCPJU
  pest or weed control at 2 g/ha: 0%
  pest or weed control at 8 g/ha: 0%
  pest or weed control at 31 g/ha: 0%
  pest or weed control at 125 g/ha: 0%
  pest or weed control at 500 g/ha: 0%
MOOVA
  pest or weed control at 2 g/ha: 0%
  pest or weed control at 8 g/ha: 0%
  pest or weed control at 31 g/ha: 0%
  pest or weed control at 125 g/ha: 0%
  pest or weed control at 500 g/ha: 30%

## C=CCON=C(CCC)C1=C(O)CC(c2c(C)c(C)c3c(c2C)CC(C)(C)C3)CC1=O (stereo not drawn) [Compound 8]
SAGPY
  pest or weed control at 2 g/ha: 0%
  pest or weed control at 8 g/ha: 0%
  pest or weed control at 31 g/ha: 0%
  pest or weed control at 125 g/ha: 0%
  pest or weed control at 500 g/ha: 0%
ORYSA; [1]
  plant injury at 2 g/ha: 0%
  plant injury at 8 g/ha: 0%
  plant injury at 31 g/ha: 0%
  plant injury at 125 g/ha: 0%
  plant injury at 500 g/ha: 0%
ORYSA; [2]
  plant injury at 2 g/ha: 0%
  plant injury at 8 g/ha: 0%
  plant injury at 31 g/ha: 60%
  plant injury at 125 g/ha: 100%
  plant injury at 500 g/ha: 100%
ECHOR
  pest or weed control at 2 g/ha: 0%
  pest or weed control at 8 g/ha: 40%
  pest or weed control at 31 g/ha: 100%
  pest or weed control at 125 g/ha: 100%
  pest or weed control at 500 g/ha: 100%
SCPJU
  pest or weed control at 2 g/ha: 0%
  pest or weed control at 8 g/ha: 0%
  pest or weed control at 31 g/ha: 0%
  pest or weed control at 125 g/ha: 0%
  pest or weed control at 500 g/ha: 0%
MOOVA
  pest or weed control at 2 g/ha: 0%
  pest or weed control at 8 g/ha: 0%
  pest or weed control at 31 g/ha: 0%
  pest or weed control at 125 g/ha: 0%
  pest or weed control at 500 g/ha: 0%

## CCC(=NOC)C1=C(O)CC(c2c(C)c3c(c(C)c2Cl)CC(C)(C)C3)CC1=O (stereo not drawn) [Compound 21]
SAGPY
  pest or weed control at 2 g/ha: 0%
  pest or weed control at 8 g/ha: 0%
  pest or weed control at 31 g/ha: 0%
  pest or weed control at 125 g/ha: 0%
  pest or weed control at 500 g/ha: 0%
ORYSA; [1]
  plant injury at 2 g/ha: 0%
  plant injury at 8 g/ha: 0%
  plant injury at 31 g/ha: 0%
  plant injury at 125 g/ha: 80%
  plant injury at 500 g/ha: 100%
ORYSA; [2]
  plant injury at 2 g/ha: 20%
  plant injury at 8 g/ha: 100%
  plant injury at 31 g/ha: 100%
  plant injury at 125 g/ha: 100%
  plant injury at 500 g/ha: 100%
ECHOR
  pest or weed control at 2 g/ha: 40%
  pest or weed control at 8 g/ha: 95%
  pest or weed control at 31 g/ha: 100%
  pest or weed control at 125 g/ha: 100%
  pest or weed control at 500 g/ha: 100%
SCPJU
  pest or weed control at 2 g/ha: 0%
  pest or weed control at 8 g/ha: 0%
  pest or weed control at 31 g/ha: 0%
  pest or weed control at 125 g/ha: 0%
  pest or weed control at 500 g/ha: 0%
MOOVA
  pest or weed control at 2 g/ha: 0%
  pest or weed control at 8 g/ha: 30%
  pest or weed control at 31 g/ha: 50%
  pest or weed control at 125 g/ha: 60%
  pest or weed control at 500 g/ha: 70%

Source: US6096930A, “Herbicidal cyclohexane-1,3-dione derivatives and their preparation process” (Korea Research Institute of Chemical Technology, priority 1994, dated 2000)
